Source: PMC11898738 (mBio, 2025)

Columns and labels:
BbPMI = target: T1, BbPMI (Borreliella burgdorferi, UniProt O51368); test: coupled PGI/G6PDH assay, NADPH at […] nm; assay type: biochemical
T1 construct: gene manA

type IV collagen = type IV collagen (UniProt P02462 173-1669; P08572 184-1712); test: MST; BbPMI labeled with RED-NHS dye at constant 5 nM; serial dilutions of collagen IV or controls; PBS + 0.05% Tween-20; 15 minutes at RT; standard capillaries, 10% excitation, 40% MST power; T-Jump analysis; settings: both partners purified

Row | Molecule | IC50 (BbPMI) | Kd (type IV collagen)
1 | Cc1ccc(C)c(-n2sc3cc(F)ccc3c2=O)c1 [MLS0315771, 2-(2,5-dimethylphenyl)-6-fluorobenzo[d]isothiazol-3(2H)-one] | 600 to 900 nM | 
2 | O=c1c2ccc(F)cc2sn1-c1ccccc1 [NCGC00871019-01] | ~500 nM | 
3 | Cc1ccc(C)c(-n2sc3ccc(F)cc3c2=O)c1 [NCGC00871020-01] | ~500 nM | 
4 | COc1ccc(-n2sc3ccc(F)cc3c2=O)cc1 [NCGC00871021-01] | ~500 nM | 
5 | recombinant BbPMI labeled with RED-NHS dye (BbPMI-NT647) (enzyme, labeled using RED-NHS dye (NT647)) MNNEDNIFLMKNNIKEYDWGGINFIPNLLGDKIDGKPKAEMWLGAHKTFSSKILYKNEYVLLSDFLEDHKELLGCNDEFPFLLKVLSANKPLSIQIHPSKDIALKGYESENNKGIDINDPKRTYKDKNPKIELIYALSDFYALKGFLPLDEIKKIYEILELNFDFQSHKDFVKTIFDLQMYELEKIIEKILKNLDLIDNFRGYWFNEIYNIYGIDVGLLVFLGMNILKLKPGEVVYTNSQEVHAYLKGDCIELMTNSDNVIRAGLTTKYIDKDEMLRVGQFEEGKLSFLNPDFQDNFSVFRLPNTNLKLIQKKINENICINRNSAMVLLVLNGCVSINKSLNLKKGESIFIGKKAENLFIDGDGEAFIAGFN |  | 128 ± 45.1 nM
